Test system: mouse locomotor activity
Assay: Reduction of mouse locomotor activity (hypolocomotion)
Type: in vivo, mouse (male, CF-1)
Conditions: 20 min, sc, horizontal activity counts collected 10 to 20 minutes after dosing
Experimental: The antipsychotic activity of the compounds of the invention was further established by a determination of the compounds' ability to reduce mouse locomotor activity according to the method of Martin and Bendensky, J. Pharmacol. Exp. Therap. 229: 706-711, 1984, in which mice (male, CF-1, Charles River, 20-30 g) were injected with vehicle or various doses of each drug and locomotor activity was measured for 30 minutes using automated infrared activity monitors (Omnitech-8×8 inch open field) located in a darkened room. ED50 's were calculated from the horizontal activity counts collected from 10 to 20 minutes after dosing using a nonlinear regression analysis with inverse prediction.

Structure (SMILES)	ED50 [mg/kg]
O=C1Cc2c(ccc3c2O[C@H](CNCc2ccccc2)CO3)N1 [Example 15, 2-(Benzylamino-methyl)-2,3,8,9-tetrahydro-7H-4-dioxino[2,3-e]indol-8-one]	0.09
O=C1Cc2c(ccc3c2O[C@@H](CNCc2cccs2)CO3)N1 [Example 12, 2-{[(Thionphen-2-ylmethyl)-amino]-methyl}-2,3,8,9-tetrahydro-7H-1,4-dioxino[2,3-e]indol-8-one]	0.0005
O=C1Cc2c(ccc3c2O[C@@H](CNCCCc2c[nH]c4ccccc24)CO3)N1 [Example 3, 2-{[3-(Indol-3-yl)-propylamino]-methyl}-2,3,8,9-tetrahydro-7H-1,4-dioxino-[2,3-e]indol-8-one]	0.039
O=C1Cc2c(c(F)cc3c2O[C@@H](CNCCCc2c[nH]c4ccccc24)CO3)N1 [Example 39, 6-Fluoro-2-{[3-(1H-indol-3-yl)-propylamino]-methyl}-2,3,8,9-tetrahydro-7H-1,4-dioxino[2,3-e]indol-8-one]	0.064
COc1ccc(CNC[C@H]2COc3ccc4c(c3O2)CC(=O)N4)cc1 [Example 17, 2-[(4-Methoxy-benzylamino)-methyl]-2,3,8,9-tetrahydro-7H-1,4-dioxino[2,3-e]indol-8-one]	0.027
CN(C)c1cccc(OCCCNC[C@H]2COc3ccc4c(c3O2)CC(=O)N4)c1 [Example 11]	0.0138
Cc1ccc(CNC[C@H]2COc3ccc4c(c3O2)CC(=O)N4)cc1 [Example 7]	0.005
O=C1Cc2c(ccc3c2O[C@@H](CNCC24CC5CC(CC(C5)C2)C4)CO3)N1 [Example 14]	0.008

Biological target: T1, dopamine D2 receptor (Rattus norvegicus, UniProt P61169)
T1 construct: homogenized rat striatal brain tissue; from tissue; host or cells: rat striatum (homogenate)
T1 sequence (P61169 whole entry): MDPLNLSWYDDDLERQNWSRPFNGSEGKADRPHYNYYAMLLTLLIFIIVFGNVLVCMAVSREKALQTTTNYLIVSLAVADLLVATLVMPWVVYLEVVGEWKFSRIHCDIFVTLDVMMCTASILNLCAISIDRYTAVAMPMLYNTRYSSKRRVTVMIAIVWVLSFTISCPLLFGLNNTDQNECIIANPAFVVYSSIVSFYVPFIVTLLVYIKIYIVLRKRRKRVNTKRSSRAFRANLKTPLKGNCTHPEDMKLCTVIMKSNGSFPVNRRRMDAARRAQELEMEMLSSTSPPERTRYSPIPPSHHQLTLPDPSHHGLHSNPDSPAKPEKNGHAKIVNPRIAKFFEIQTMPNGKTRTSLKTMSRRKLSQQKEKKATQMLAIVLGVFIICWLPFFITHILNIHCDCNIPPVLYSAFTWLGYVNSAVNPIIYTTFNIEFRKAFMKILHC
Assay: Affinity for the dopamine D2 receptor (3H-quinpirole, rat striatal brain tissue homogenate)
Type: binding
Conditions: homogenized rat striatal brain tissue
Experimental: Affinity for the dopamine D2 receptor was established by a modification of the standard experimental test procedure of Seemen and Schaus, European Journal of Pharmacology 203: 105-109, 1991, wherein homogenized rat striatal brain tissue is incubated with ^3 H-quinpirole and various concentrations of test compound, filtered and washed and counted in a Betaplate scintillation counter.

IC50 [nM]	Structure (SMILES)
0.45	CCCCCNC[C@H]1COc2ccc3c(c2O1)CC(=O)N3 [Example 16, 2-(Pentylaminomethyl)-2,3,8,9-tetrahydro-7H-1,4-dioxino[2,3-e]indol-8-one]
0.35	Cc1ccc(CNC[C@H]2COc3cc(F)c4c(c3O2)CC(=O)N4)cc1 [Example 36, 6-Fluoro-2-[(4-methyl-benzylamino)-methyl]-2,3,8,9-tetrahydro-7H-1,4-dioxino[2,3-e]indol-8-one]
0.51	CN(C)c1cccc(OCCCNC[C@H]2COc3cc(F)c4c(c3O2)CC(=O)N4)c1 [Example 37, 2-{[3-(3-Dimethylamino-phenoxy)-propylamino]-methyl}-6-fluoro-2,3,8,9-tetrahydro-7H-1,4-dioxino[2,3-e]indol-8-one]
0.89	CC(=O)Nc1cccc(OCCCNC[C@H]2COc3ccc4c(c3O2)CC(=O)N4)c1 [Example 23, N-(3-{3-[(8-Oxo-2,3,8,9-tetrahydro-7H-1,4-dioxinor[2,3-e]indol-2-ylmethyl)-amino]-propoxy}-phenyl)-acetamide]
0.34	O=C1Cc2c(ccc3c2O[C@@H](CNCc2ccc(C(F)(F)F)cc2)CO3)N1 [Example 19, 2-(4-Trifluoromethyl-benzylamino-methyl)-2,3,8,9-tetrahydro-7H-1,4-dioxino [2,3-e]indol-8-one]
1.39	O=C1Cc2c(ccc3c2O[C@@H](CNCCCOc2ccc4cccnc4c2)CO3)N1 [Example 13]
1.04	O=C1Cc2c(ccc3c2O[C@@H](CNCc2cccc(C(F)(F)F)c2)CO3)N1 [Example 25, 2-[(3-Trifluoromethyl-benzylamino)-methyl]-2,3,8,9-tetrahydro-7H-1,4-dioxino [2,3-e]indol-8-one]
2.15	Cc1cc2c(c3c1NC(=O)C3)O[C@@H](CNCc1ccc(F)cc1)CO2 [Example 32]
1.43	Cc1ccc(CNC[C@H]2COc3cc(Cl)c4c(c3O2)CC(=O)N4)cc1 [Example 44, 6-Chloro-2-[(4-methyl-benzylamino)-methyl]-2,3,8,9-tetrahydro-7H-1,4-dioxino[2,3-e]indol-8-one]
17.7	O=C1Nc2ccc3c(c2C1=Cc1ccc(F)cc1)O[C@@H](CNCc1ccc(F)cc1)CO3 [Example 22]
3.33	O=C1Cc2c(ccc3c2O[C@H](CNCc2ccccc2)CO3)N1 [Example 15, 2-(Benzylamino-methyl)-2,3,8,9-tetrahydro-7H-4-dioxino[2,3-e]indol-8-one]
3.3	Cc1cc2c(c3c1NC(=O)C3)O[C@@H](CNCc1cccs1)CO2 [Example 29, 2-{[(Thiophene-2-ylmethyl)-amino]-methyl}-6-methyl-2,3,8,9-tetrahydro-7H-1,4-dioxino[2,3-e]indol-8-one]
0.51	O=C1Cc2c(ccc3c2O[C@@H](CNCc2cccs2)CO3)N1 [Example 12, 2-{[(Thionphen-2-ylmethyl)-amino]-methyl}-2,3,8,9-tetrahydro-7H-1,4-dioxino[2,3-e]indol-8-one]
0.14	O=C1Cc2c(ccc3c2O[C@@H](CNCCCc2c[nH]c4ccccc24)CO3)N1 [Example 3, 2-{[3-(Indol-3-yl)-propylamino]-methyl}-2,3,8,9-tetrahydro-7H-1,4-dioxino-[2,3-e]indol-8-one]
0.56	O=C1Cc2c(c(F)cc3c2O[C@@H](CNCc2ccc(F)cc2)CO3)N1 [Example 34, 6-Fluoro-2-[(4-fluoro-benzylamino)-methyl]-2,3,8,9-tetrahydro-7H-1,4-dioxino[2,3-e]indol-8-one]
1.79	O=C1Cc2c(ccc3c2O[C@@H](CNCCc2c[nH]c4ccccc24)CO3)N1 [Example 4]
0.37	O=C1Cc2c(ccc3c2O[C@@H](CNCC2CCCCC2)CO3)N1 [Example 9, 2-(Cyclohexylmethylamino-methyl)-2,3,8,9-tetrahydro-7H-1,4-dioxino[2,3-e]indol-8-one]
52.1	Cc1ccc(C=C2C(=O)Nc3c(F)cc4c(c32)O[C@@H](CNCc2ccc(C)cc2)CO4)cc1 [Example 35, 6-Fluoro-2-[(4-methyl-benzylamino)-methyl]-9-(4-methyl-benzylidene)-2,3.8.9-tetrahydro-7H-1,4-dioxino[2,3-e]indol-8-one]
0.57	O=C1Cc2c(c(F)cc3c2O[C@@H](CNCc2ccccc2)CO3)N1 [Example 33, 2-(Benzylamino-methyl)-6-fluoro-2,3,8,9-tetrahydro-7H-1,4-dioxino[2,3-e]indol-8-one]
0.78	O=C1Cc2c(c(F)cc3c2O[C@@H](CNCCCc2c[nH]c4ccccc24)CO3)N1 [Example 39, 6-Fluoro-2-{[3-(1H-indol-3-yl)-propylamino]-methyl}-2,3,8,9-tetrahydro-7H-1,4-dioxino[2,3-e]indol-8-one]
0.68	COc1ccc(CNC[C@H]2COc3ccc4c(c3O2)CC(=O)N4)cc1 [Example 17, 2-[(4-Methoxy-benzylamino)-methyl]-2,3,8,9-tetrahydro-7H-1,4-dioxino[2,3-e]indol-8-one]

IC50 [nM]	Structure (SMILES)
0.53	O=C1Cc2c(c(F)cc3c2O[C@@H](CNCc2ccc(Cl)cc2)CO3)N1 [Example 40, 2-[(4-Chloro-benzylamino)-methyl]-6-fluoro-2,3,8,9-tetrahydro-7H-1,4-dioxino[2,3-e]indol-8-one]
1.3	CN(C)c1cccc(OCCCNC[C@H]2COc3ccc4c(c3O2)CC(=O)N4)c1 [Example 11]
12.3	O=C1CCc2c(ccc3c2O[C@@H](CNCc2ccccc2)CO3)N1 [Example 6, 2-(Benzylamino-methyl)-2,3,9,10-tetrahydro-7H-1,4-dioxino[2,3-f]quinolin-8-one]
1.08	O=C1Cc2c(c(F)cc3c2O[C@@H](CNCC24CC5CC(CC(C5)C2)C4)CO3)N1 [Example 38, 2-{[(Adamantan-1-ylmethyl)-amino]-methyl}-6-fluoro-2,3,8,9-tetrahydro-7H-1,4-dioxino[2,3-e]indol-8-one]
0.34	Cc1ccc(CNC[C@H]2COc3ccc4c(c3O2)CC(=O)N4)cc1 [Example 7]
0.56	O=C1Cc2c(c(F)cc3c2O[C@@H](CNCc2ccc(C(F)(F)F)cc2)CO3)N1 [Example 41, 6-Fluoro-2-[(4-trifluoromethyl-benzylamino)-methyl]-2,3,8,9-tetrahydro-7H-dioxino[2,3-e]indol-8-one]
0.98	O=C1Cc2c(c(Cl)cc3c2O[C@@H](CNCc2ccc(Cl)cc2)CO3)N1 [Example 43, 6-Chloro-2-[(4-chloro-benzylamino)-methyl]-2,3,8,9-tetrahydro-7H-1,4-dioxino[2,3-e]indol-8-one]
2.8	O=C1Nc2ccc3c(c2C1=Cc1ccccc1)O[C@@H](CNCc1ccccc1)CO3 [Example 2, 2-(Benzylamino-methyl)-1-benzylidene-2,3,8,9-tetrahydro-7H-1,4-dioxino[2,3-e]indol-8-one]
9.93	NC[C@H]1COc2ccc3c(c2O1)CC(=O)N3 [Example 8, 2-Aminomethyl-2,3,8,9-tetrahydro-7H-1,4-dioxino[2,3-e]indol-8-one]
3.06	O=C1Cc2c(ccc3c2O[C@@H](CNCCc2cccnc2)CO3)N1 [Example 10, 2-[(2-Pyridin-3yl-ethylamino)-methyl]-2,3,8,9-tetrahydro-7H-1,4-dioxino-[2,3-e]indol-8one]
0.43	O=C1Cc2c(ccc3c2O[C@@H](CNCC24CC5CC(CC(C5)C2)C4)CO3)N1 [Example 14]
0.67	O=C1Cc2c(c(F)cc3c2O[C@@H](CNCCCCc2ccccc2)CO3)N1 [Example 42, 6-Fluoro-2-[(4-phenyl-butylamino)-methyl]-2,3,8,9-tetrahydro-7H-1,4-dioxino[2,3-e]indol-8-one]
0.49	O=C1Cc2c(ccc3c2O[C@@H](CNCc2cccc4ccccc24)CO3)N1 [Example 18, 2-(Napthalen-1-yl-methylamino-methyl)-2,3,8,9-tetrahydro-7H-1,4-dioxono[2,3-e]indol-8-one]
1	O=C1Cc2c(c(Cl)cc3c2O[C@@H](CNCc2ccc(F)cc2)CO3)N1 [Example 46, 6-Chloro-2-[(4-fluoro-benzylaimino)-methyl]-2,3,8,9-tetrahydro-7H-1,4-dioxino[2,3-e_]indol-8-one]
0.33	O=C1Cc2c(ccc3c2O[C@@H](CNCCCCc2ccccc2)CO3)N1 [Example 21, 2-(4-Phenyl-butylamino)-methyl-2,3,8,9-tetrahydro-7H-1,4-dioxino[2,3-e]indol-8-one]
0.52	O=C1Nc2ccc3c(c2C1=O)O[C@@H](CNCc1ccccc1)CO3 [Example 26]
0.29	O=C1Cc2c(ccc3c2O[C@@H](CNCc2ccc(F)cc2)CO3)N1 [Example 20, 2-(4-Fluoro-benzylamino)-methyl-2,3,8,9-tetrahydro-7H-1,4-dioxino[2,3-e]-indol-8-one]
1.42	O=C1Cc2c(ccc3c2O[C@@H](CNCCCO)CO3)N1 [Example 5, 2-[(3-Hydroxy-propylamino)-methyl]-2,3,8,9-tetrahydro-7H-1,4-dioxino[2,3-e]indol-8-one]
0.97	O=C1Cc2c(c(Cl)cc3c2O[C@@H](CNCc2ccccc2)CO3)N1 [Example 45, 2-(Benzylamino)-methyl-6-chloro-2,3,8,9-tetrahydro-7H-1,4-dioxino[2,3-e]indol-8-one]
1.3	Cc1cc2c(c3c1NC(=O)C3)O[C@@H](CNCc1ccccc1)CO2 [Example 31, 2-(Benzylamino-methyl)-6-methyl-2,3,8,9-tetrahydro-7H-1,4-dioxino[2,3-e]indol-8-one]
